Results: article PMC10184313, “Inhibition of Thiamine Diphosphate-Dependent Enzymes by Triazole-Based Thiamine Analogues” (ACS Medicinal Chemistry Letters, 2023)

Legend:
[1] = biological target: PDC from Zymomonas mobilis; set-up: method as in PMID 19082157, PMID 20099870; conditions: ref [8],[24]; cited from earlier work
porcine PDHc E1 = biological target: T1, porcine PDHc E1 (Sus scrofa, UniProt P29804); assay: PDHc E1 inhibitory activity assay (DCPIP reduction); format: biochemical; conditions: porcine PDHc E1; read-out: KM(ThDP) PDHc E1
T1 sequence (P29804 31-390): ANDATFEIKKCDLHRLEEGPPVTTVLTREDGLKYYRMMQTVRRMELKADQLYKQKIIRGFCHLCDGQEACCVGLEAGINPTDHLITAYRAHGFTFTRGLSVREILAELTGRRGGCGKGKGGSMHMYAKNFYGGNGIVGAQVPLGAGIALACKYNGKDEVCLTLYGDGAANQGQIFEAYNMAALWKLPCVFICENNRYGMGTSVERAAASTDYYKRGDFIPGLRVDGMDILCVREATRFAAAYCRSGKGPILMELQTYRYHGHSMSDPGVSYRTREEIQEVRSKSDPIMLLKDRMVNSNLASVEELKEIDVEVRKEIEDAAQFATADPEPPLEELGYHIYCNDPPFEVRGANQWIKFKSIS
Method: Enzyme assays – Methods and Results S1
Ligand efficiencies – Calculations S3 […]
Enzyme assays (Methods and Results)
PDHc E1 inhibitory activity assay. Porcine PDHc E1 was purchased from Sigma. Its activity was […]
determined by monitoring 2,6-dichlorophenolindophenol (DCPIP) reduction at 600 nm using a […]
microplate reader (CLARIOstar) and conducted as described 1,2 with some modifications. The percentage inhibition of compounds against porcine PDHc E1 was assayed at a final concentration of 250 µM. The reaction buffer (50 mM KH 2PO4 and 1 mM MgCl 2, pH 7) contained 50 µM ThDP (or 125 µM in the competition assay), 0.25 mM DCPIP, and 2 mg/ml porcine PDHc E1. The reaction mixture […]
was preincubated at 37 °C for 30 min, then the reaction was initiated by adding pyruvate to a final […]
concentration of 50 mM. To determine the half-maximal inhibitory concentration (IC 50 ), ThDP […]
concentration was lowered to 10 µM, and inhibitor concentration was varied (0.4-200 µM). Specific […]
activity was calculated using the molar extinction coefficient of DCPIP, 21 mM -1 cm-1.3 The enzyme […]
IC50 values were calculated from non-linear regression curve fitting using GraphPad Prism.

E. coli OGDHc E1 = biological target: T2, E. coli OGDHc E1 (Escherichia coli, UniProt P0AFG3); assay: E. coli OGDHc E1 inhibitory activity assay (DCPIP reduction); format: biochemical; conditions: E. coli OGDHc E1; read-out: KM(ThDP) OGDHc E1
T2 sequence (P0AFG3 1-933): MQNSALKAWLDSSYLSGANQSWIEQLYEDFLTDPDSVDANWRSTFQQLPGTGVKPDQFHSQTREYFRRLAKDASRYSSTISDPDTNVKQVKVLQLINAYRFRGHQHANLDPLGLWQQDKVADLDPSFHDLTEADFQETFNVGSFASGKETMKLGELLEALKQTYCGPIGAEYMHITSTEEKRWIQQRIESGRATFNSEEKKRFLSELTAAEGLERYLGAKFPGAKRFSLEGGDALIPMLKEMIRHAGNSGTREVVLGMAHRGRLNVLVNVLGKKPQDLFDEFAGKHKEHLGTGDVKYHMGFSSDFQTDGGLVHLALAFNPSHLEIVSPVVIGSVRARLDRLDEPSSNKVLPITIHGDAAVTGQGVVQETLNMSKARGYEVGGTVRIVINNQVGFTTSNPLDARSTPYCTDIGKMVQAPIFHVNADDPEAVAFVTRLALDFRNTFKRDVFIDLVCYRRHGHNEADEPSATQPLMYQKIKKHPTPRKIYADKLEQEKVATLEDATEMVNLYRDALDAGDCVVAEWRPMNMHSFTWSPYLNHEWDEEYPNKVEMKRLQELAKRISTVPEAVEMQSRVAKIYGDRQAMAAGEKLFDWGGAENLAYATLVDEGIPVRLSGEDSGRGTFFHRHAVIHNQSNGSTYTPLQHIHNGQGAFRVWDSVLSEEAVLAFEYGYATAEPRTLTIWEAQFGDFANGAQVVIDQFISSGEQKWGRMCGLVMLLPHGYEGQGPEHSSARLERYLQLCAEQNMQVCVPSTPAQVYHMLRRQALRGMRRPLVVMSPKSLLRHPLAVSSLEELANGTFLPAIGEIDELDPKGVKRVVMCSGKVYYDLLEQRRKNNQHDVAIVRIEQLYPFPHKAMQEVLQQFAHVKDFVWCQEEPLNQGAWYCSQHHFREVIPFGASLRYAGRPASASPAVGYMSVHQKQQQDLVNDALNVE
Method: E. coli OGDHc E1 inhibitory activity assay. E. coli OGDHc E1 was from our previous work 5 and had been donated by R. Frank. Its activity was determined by monitoring DCPIP reduction at 600 nm using a microplate reader (CLARIOstar) and conducted as described 1,2 with some modifications. The percentage inhibition of compounds against E. coli OGDHc E1 was assayed at a final concentration of 250 µM. The reaction buffer (50 mM KH 2PO4 and 2 mM MgCl 2, pH 7) contained 50 µM ThDP (or 125 µM in the competition assay), 0.5 mM DCPIP, and 6.7 mg/ml E. coli OGDHc E1. The reaction mixture was preincubated at 37 °C for 60 min, then reaction was initiated by adding α-ketoglutarate to a final concentration of 10 mM. To determine the IC 50, ThDP concentration was lowered to 30 µM, and inhibitor concentration was varied (2-1000 µM). Specific activity was calculated using the molar […]
for the PDHc E1 assay. […] 5 […]

P. falciparum strain 3D7 = conditions: thiamine 2.97 μM vs absence of thiamine; ref [15]; cited from earlier work
[2] = tested on: P. falciparum 3D7 expressing PfTPK-GFP; set-up: method as in PMID 23804074; conditions: thiamine-free culture medium; ref [15]; cited from earlier work
[3] = substrate: Cc1ncc(C[n+]2csc(CCO[P@](=O)(O)OP(=O)(O)O)c2C)c(N)n1; assay: Z. mobilis PDC inhibitory activity assay (NADH consumption); format: biochemical, Zymomonas mobilis; conditions: pH 7.0; 37.0 °C
[4] = substrate: Cc1ncc(C[n+]2csc(CCO[P@](=O)(O)OP(=O)(O)O)c2C)c(N)n1; assay: A. viridans PO inhibitory activity assay (quinoneimine dye); format: biochemical, Aerococcus viridans; conditions: other: A. viridans PO; 37.0 °C
Method: A. viridans PO inhibitory activity assay. A. viridans PO and horseradish peroxidase were purchased from Sigma. A. viridans PO activity was determined by monitoring appearance of quinoneimine dye at 550 nm using a microplate reader (CLARIOstar) and conducted as described 1 with some modifications.
The percentage inhibition of compounds against A. viridans PO was assayed at a final concentration of 250 µM. The reaction buffer (50 mM KH 2PO4 and 10 mM MgCl 2, pH 5.9) contained 50 µM ThDP (or 125 µM in the competition assay), 10 µM flavin adenine dinucleotide (FAD), 0.15% 4-Aminoantipyrine, 0.3% N-Ethyl-N-(2-hydroxy-3-sulfopropyl)-m-toluidine (EHSPT), 50 µg/mL horseradish peroxidase and 0.35 U/mL A. viridans PO. The reaction mixture was preincubated at 37 °C for 30 min, then reaction was initiated by adding pyruvate to a final concentration of 50 mM. To determine the IC 50, inhibitor concentration was varied (2-1000 µM) with ThDP concentration at 50 µM. 1 unit of PO activity is defined as 1 μmol of hydrogen peroxide produced per minute. The enzyme IC 50 values were calculated as described for the PDHc E1 assay. […]

Cc1ncc(Cn2cc(CCOP(=O)(O)OP(=O)(O)O)nn2)c(N)n1 [Triazole-ThDP 5]
Ki [1]: 0.03 nM

Cc1ncc(C[n+]2csc(CCO[P@](=O)(O)OP(=O)(O)O)c2C)c(N)n1 [ThDP, thiamine diphosphate]
Km (porcine PDHc E1): 0.05 µM | Km (E. coli OGDHc E1): 3 µM

Cc1ncc(C[n+]2csc(CCO)c2C)c(O)n1 [Compound 7a, oxythiamine]
fold increase of IC50 with added thiamine (P. falciparum strain 3D7): 470 fold | fold more sensitive, parasite over-expressing TPK vs parasite bearing an empty plasmid [2]: 70 fold

B1: Z. mobilis PDC (Zymomonas mobilis subsp. mobilis ZM4 = ATCC 31821) (protein)
chain: MSYTVGTYLAERLVQIGLKHHFAVAGDYNLVLLDNLLLNKNMEQVYCCNELNCGFSAEGYARAKGAAAAVVTYSVGALSAFDAIGGAYAENLPVILISGAPNNNDHAAGHVLHHALGKTDYHYQLEMAKNITAAAEAIYTPEEAPAKIDHVIKTALREKKPVYLEIACNIASMPCAAPGPASALFNDEASDEASLNAAVEETLKFIANRDKVAVLVGSKLRAAGAEEAAVKFADALGGAVATMAAAKSFFPEENPHYIGTSWGEVSYPGVEKTMKEADAVIALAPVFNDYSTTGWTDIPDPKKLVLAEPRSVVVNGIRFPSVHLKDYLTRLAQKVSKKTGALDFFKSLNAGELKKAAPADPSAPLVNAEIARQVEALLTPNTTVIAETGDSWFNAQRMKLPNGARVEYEMQWGHIGWSVPAAFGYAVGAPERRNILMVGDGSFQLTAQEVAQMVRLKLPVIIFLINNYGYTIEVMIHDGPYNNIKNWDYAGLMEVFNGNGGYDSGAGKGLKAKTGGELAEAIKVALANTDGPTLIECFIGREDCTEELVKWGKRVAAANSRKPVNKLL
notes: made in house
Km [3]: 0.35 µM

B2: A. viridans PO (Aerococcus viridans) (protein)
chain: MSDNKINIGLAVMKILESWGADTIYGIPSGTLSSLMDAMGEEENNVKFLQVKHEEVGAMAAVMQSKFGGNLGVTVGSGGPGASHLINGLYDAAMDNIPVVAILGSRPQRELNMDAFQELNQNPMYDHIAVYNRRVAYAEQLPKLVDEAARMAIAKRGVAVLEVPGDFAKVEIDNDQWYSSANSLRKYEPIAPAAQDIDAAVELLNNSKRPVIYAGIGTMGHGPAVQELARKIKAPVITTGKNFETFEWDFEALTGSTYRVGWKPANETILEADTVLFAGSNFPFSEVEGTFRNVDNFIQIDIDPAMLGKRHHADVAILGDAGLAIDEILNKVDAVEESAWWTANLKNIANWREYINMLETKEEGDLQFYQVYNAINNHADEDAIYSIDVGNSTQTSIRHLHMTPKNMWRTSPLFATMGIAIPGGLGAKNTYPDRQVWNIIGDGAFSMTYPDVVTNVRYNMPVINVVFSNTEYAFIKNKYEDTNKNLFGVDFTDVDYAKIAEAQGAKGFTVSRIEDMDRVMAEAVAANKAGHTVVIDCKITQDRPIPVETLKLDSKLYSEDEIKAYKERYEAANLVPFREYLEAEGLESKYIK
Km [4]: 5 µM
